Like-named read-outs stand apart in the source and are kept apart here.
Columns and labels:
[1] = test system: human ovarian carcinoma line OVCAR-3; experiment: Ovarian carcinoma (OVCAR-3) test using nude mice protocol (survival, T/C); type: in vivo; details: for T/C: female nude mice, OVCAR-3 xenograft, three injections per week for 6 weeks (Fig. 3)
Excerpt: The present invention will now be described by way of example with reference to the accompanying drawings in which: Figures 1-4 are survival plots of cancer-bearing mice treated with the dyes of this invention, compared to a control group of such mice left untreated. In these plots, "% survival" means the percentage of the total group (treated "T" or control "C") still surviving on the day in question. The 50% data point is selected for the T/C calculation, as being the point that is statistically meaningful. Nude mice, that is, those deficient in thymic functions, bred and maintained in pathogen free conditions [see J. Natl. Cancer Inst. 51:615-619 (1973)] were used in in vivo experiments. For each experiment, nude mice from the same litter and of the same sex which were over 3 months old and weighed at least 25g were injected or implanted with cancer cells. Examples 6 and 7 were repeated, except they were administered to female nude mice (aged 8-12 weeks) xenografted with human ovarian carcinoma line OVCAR-3. Eight mice in Example 6, and 8 mice in Example 7 were selected for treatment with the thiopyrylium, in an amount of 2.5 and 5 mg/kg respectively, administered IP 1 day after the cancer cells were injected. This was repeated as follows: Three injections per week for 6 weeks. Eight mice were used as the control group and were injected with 0.25 ml of 5% dextrose in water.

[2] = test system: human melanoma cell line, LOX; experiment: Melanoma test using nude mice protocol (survival, T/C); type: in vivo
Excerpt: The present invention will now be described by way of example with reference to the accompanying drawings in which: Figures 1-4 are survival plots of cancer-bearing mice treated with the dyes of this invention, compared to a control group of such mice left untreated. In these plots, "% survival" means the percentage of the total group (treated "T" or control "C") still surviving on the day in question. The 50% data point is selected for the T/C calculation, as being the point that is statistically meaningful. Effectiveness against human cancer can be inferred by tests in the nude mouse-human xenograft model, hereinafter "nude mice protocol". […] 899-903, especially p. 889 (April 1985). Nude mice, that is, those deficient in thymic functions, bred and maintained in pathogen free conditions [see J. Natl. Cancer Inst. 51:615-619 (1973)] were used in in vivo experiments. For each experiment, nude mice from the same litter and of the same sex which were over 3 months old and weighed at least 25g were injected or implanted with cancer cells. A human melanoma cell line, LOX, was used that grows rapidly when inoculated into the peritoneal cavity of the athymic mice. Tumors which had been passaged subcutaneously in athymic mice were excised under sterile conditions and converted to a single cell suspension using a metal grid with a 4 mm mesh. Red blood cells were then lysed by incubation with 0.17 molar ammonium chloride at 4°C for 30 minutes. Cells were then scored for viability with trypan blue and 5 million viable cells made up in 0.2 ml of Dulbecco modified Eagles' medium (DME) were injected intraperitoneally (IP) into a group of male athymic Swiss nu/nu mice (day 0). The mice were then randomly allocated into treatment and control groups (5% dextrose) and treatment, by intraperitoneal injection commenced the following day. In Example 6, five mice received 5 mg/kg of the drug T-5, Table I, administered Monday, Wednesday & Friday of each week for a total of 11 injections. Five mice received the same volume of the control 5% dextrose solution on the same days. […]

[3] = test system: human lung carcinoma line; experiment: In vitro IC50, adhering monolayer culture, neutral red staining; type: cell-based; details: 3 hours drug exposure under red light, then about 7 days growth, read-out: IC50 Lung Adeno-carcinoma
Protocol: (§1) Although these examples were not tested in animal models, their similar efficacy in human melanoma and differentiated carcinomas is predicated from the fact they had similar in vitro results compared to T-5. The in vitro tests were run as follows, to ascertain the IC₅₀ concentrations. (IC₅₀ is the in vitro concentration that kills one-half the cell line against which the compound is tested. The smaller the concentration, the higher the toxicity.)
(§2) For the IC₅₀ values for the human lung carcinoma line, an adhering monolayer culture was used. Two days prior to plating, a number of cells obtained from the American Type Tissue Culture Collection was selected to grow as a stock, the number being that which would ensure the cells had not reached their plateau at the time of the in vitro test. On day 1 of the assay, asynchronous exponentially growing cells from this stock were suspended in a conventional complete medium comprising RPMI 1640 medium supplemented with 5% (v/v) fetal calf serum and 5% (v/v) NV serum obtained from Collaborative Research, and 20mM HEPES buffer, i.e., 4-(2-hydroxyethyl)-1-piperazineethanesulfonic acid. This was plated into a conventional 96-well tissue culture plate using a Cetus/Perkin Elmer automated pipetting device with a dual supply manifold. The cells were then incubated for 48 hours at 37°C in a humidified atmosphere containing 5% CO₂. Selected cells were then incubated under red light for 3 hours in the presence of varying amounts of the compound of interest at 37°C in a humidified incubator containing 5% CO₂. Compounds were tested over a 6-log range of concentrations. The drug treated cells were then rinsed one time with complete medium as set forth above, and incubated in complete medium the length of time appropriate to achieve four cell-doubling times (roughly 7 days for these cell lines). The medium was removed and the cells stained for 1-2 hours at 37°C with 0.1% (w/v) neutral red dye obtained from Eastman Kodak Co., dissolved in phosphate buffered saline (PBS) (without calcium or magnesium cations) at a pH of 6.85. The cells were rinsed twice with the same PBS and dried. Excess neutral red dye was eluted from each well with 50% (v/v) ethanol in 1% (v/v) aqueous glacial acetic acid. The absorbency of each well was quantitated using a Perkin-Elmer absorbence densitameter set at 540 nm. The percent of inhibition of cell growth for a given concentration of compound was calculated using the equation: [formula] where At = absorbence of the cells treated with the candidate drug, Au = absorbence of the control treated with solvent only, and Ab = absorbence of the media and well only (background). […] The plotted data was then fitted to the curve for the function: F(x) = 100 - [100(X/A)^B/(1+(X/A)^B)] where x = the concentration of the test compound, A = the IC₅₀ value (50% inhibition on the plot) and B = the exponent of the fitted function.

L1210 leukemia cells = experiment: In vitro IC50, suspension culture, cell count by Coulter Counter; type: cell-based; details: compound present for 48 hours (four cell doubling times), read-out: IC50 L1210 Mouse Lymphoma
Protocol: as §1, §2
To determine the IC₅₀ for the L1210 leukemia cells, a suspension culture was used. The procedure for the monolayer culture was followed, except that the cells were seeded at a density of 3 X 10⁴ cells/ml in the RPMI 1640 medium supplemented this time with 10% (v/v) NV SERUM, no calf serum, and 20mM HEPES buffer, with the compound of interest already added. These were added immediately to a conventional 24-well culture plate and incubated for a four cell doubling time (48 hours for this cell line). Cell numbers were quantitated using the Model ZF Coulter Counter. F(x) was obtained from the equation: [formula] where Nt = number of treated cells detected, never less than No, Nu = number of cells detected in the control that were untreated except for the solvent, and No = number of cells initially seeded.

MB49 tumor cells [4] = experiment: Mouse bladder carcinoma, tumor cells and drug given IP (survival, T/C); type: in vivo; details: normal male BDFI mice, MB49 cells IP
Excerpt: The present invention will now be described by way of example with reference to the accompanying drawings in which: Figures 1-4 are survival plots of cancer-bearing mice treated with the dyes of this invention, compared to a control group of such mice left untreated. In these plots, "% survival" means the percentage of the total group (treated "T" or control "C") still surviving on the day in question. The 50% data point is selected for the T/C calculation, as being the point that is statistically meaningful. MB49 tumor cells, that is, mouse carcinoma cells induced by the carcinogen 7,12-dimethyl benz[a]anthracene, were obtained by conventional processes and injected intraperitoneally into normal male BDFI mice (5 million/mouse). Each drug treated group and control group had 5 mice. In example 8, 5 mg/kg of T-5 was administered 3 times per week for three weeks, starting Day 1. In Example 9, it was 3 mg/kg three times per week for 3 weeks.

MB49 tumor cells [5] = experiment: Mouse bladder carcinoma, tumor cells mixed with drug before instillation into the bladder (bladder weight); type: in vivo; details: 21 days after tumor initiation; from mean bladder weights vs controls; MB49 cells (4 X 10⁶) mixed with 0.05 mg/ml drug before instillation into the mouse bladder
Protocol: These values were calculated by dividing the difference between the mean weight of bladders from controls (water-treated animals) and mean weight of bladders of drug-treated animals by the mean weight of bladders from control animals and multiplying this fraction by 100. (In this experiment, the drug was administered by mixing the MB49 tumor cells (4 X 10⁶) with 0.05 mg/ml of the drug prior to instillation of the cell suspension into the mouse bladder.)

With CN(C)c1ccc(-c2cc(-c3ccccc3)[s+]c(-c3ccccn3)c2)cc1 [4-(4-N,N-dimethylaminophenyl-2-phenyl-6-(2-pyridyl)thiopyrylium chloride, reference compound] the “T/C against the ovarian carcinoma” value ([1]; comparative example, xenografted human ovarian cancer, very similar procedures, dose not stated, also listed in the Related Application) was 340% and the T/C against melanoma ([2]; comparative example, xenografted human melanoma, very similar procedures, dose not stated, also listed in the Related Application) was 227%.
Work on CN(C)c1ccc(-c2cc(-c3cccc(N)c3)[s+]c(-c3cccc(N)c3)c2)cc1 [Compound T-1, 2,6-Bis(3-aminophenyl)-4-[4-(dimethyl-amino)phenyl]thiopyrylium chloride] yielded an IC50 ([3]; Homo sapiens) of 370 nM and an IC50 (L1210 leukemia cells; Mus musculus, L1210, 48 h) of 38 nM.
In the case of Nc1ccc(-c2cc(-c3ccc(N)cc3)[s+]c(-c3ccc(N)cc3)c2)cc1 [Compound T-2, 2,4,6-Tris(4-aminophenyl)thiopyrylium chloride], the IC50 ([3]; Homo sapiens) is reported as 190 nM and the IC50 (L1210 leukemia cells; Mus musculus, L1210, 48 h) is reported as 270 nM.
For Nc1ccc(-c2cc(-c3ccccc3)cc(-c3ccc(N)cc3)[s+]2)cc1 [Compound T-3, 2,6-Bis(4-aminophenyl)-4-phenylthiopyrylium chloride], the IC50 ([3]; Homo sapiens) was 17 nM and the IC50 (L1210 leukemia cells; Mus musculus, L1210, 48 h) was 33 nM.
Compound COc1ccc(-c2cc(-c3ccc(N)cc3)[s+]c(-c3ccc(N)cc3)c2)cc1 [Compound T-4, 2,6-Bis(4-aminophenyl)-4-(4-methoxyphenyl)-thiopyrylium chloride] has an IC50 ([3]; Homo sapiens) of 11 nM and an IC50 (L1210 leukemia cells; Mus musculus, L1210, 48 h) of 10 nM.
In the case of CN(C)c1ccc(-c2cc(-c3ccc(N)cc3)[s+]c(-c3ccc(N)cc3)c2)cc1.[Cl-] [Compound T-5, 2,6-Bis(4-aminophenyl)-4-[4-(N,N-dimethyl-amino)phenyl]thiopyrylium chloride], the T/C ([1]; 2.5 mg/kg IP) is reported as greater than 450%, the T/C ([1]; 5 mg/kg IP) is reported as greater than 450% and the T/C ([2]; male athymic Swiss nu/nu mice, LOX cells IP, 5 mg/kg IP Monday, Wednesday & Friday, 11 injections, 50% survival point (Fig. 1)) is reported as 366%. For the same compound, the “Survival (T/C)” value ([2]; male athymic Swiss nu/nu mice, LOX cells IP, 8 mg/kg IP Wednesday and Saturday for 3 weeks (Fig. 2)) was 338%, the IC50 [3] was 60 to 80 nM and the IC50 ([3]; Homo sapiens) was 40 nM. For the same compound, the IC50 (L1210 leukemia cells; Mus musculus, L1210, 48 h) was 220 nM, the IC50 (L1210 leukemia cells) was 140 nM and the T/C (MB49 tumor cells [4]; 3 mg/kg three times per week for 3 weeks (Example 9, Fig. 4)) was 344%. For the same compound, the T/C (MB49 tumor cells [4]; 5 mg/kg 3 times per week for three weeks (Example 8, Fig. 4)) was 244%.
CN(C)c1ccc(-c2cc(-c3ccccc3)[s+]c(-c3ccc(N(C)C)cc3)c2)cc1 [Compound T-6] was tested, and the “average inhibition in tumor growth” value (MB49 tumor cells [5]) was 21.6%.
